Experimental data: paper PMC3004530 (Journal of the American Chemical Society, 2010)

What was measured:
[1] = test system: HDAC; conditions: cited from earlier work
[2] = target: HDAC2 (Homo sapiens, UniProt Q92769); test: HDAC2 high-throughput coupled biochemical assay
[3] = target: HDAC1 (Homo sapiens, UniProt Q13547); test: HDAC1 biochemical inhibition assay; conditions: read-out: IC50 HDAC1
[4] = test system: HDACs 4-8; test: HDAC biochemical inhibition, HDACs 4-8; conditions: data not shown
[5] = target: HDAC3 (Homo sapiens, UniProt O15379); test: HDAC3 biochemical inhibition assay; conditions: read-out: IC50 HDAC3
[6] = target: HDAC6 (Homo sapiens, UniProt Q9UBN7)
[7] = target: HDAC8 (Homo sapiens, UniProt Q9BY41)
[8] = test system: HDACs 1, 2 and 3; test: Mode of inhibition / deacetylation progression; assay type: biochemical

Chain of HDAC2 (Q92769 whole entry, species assumed): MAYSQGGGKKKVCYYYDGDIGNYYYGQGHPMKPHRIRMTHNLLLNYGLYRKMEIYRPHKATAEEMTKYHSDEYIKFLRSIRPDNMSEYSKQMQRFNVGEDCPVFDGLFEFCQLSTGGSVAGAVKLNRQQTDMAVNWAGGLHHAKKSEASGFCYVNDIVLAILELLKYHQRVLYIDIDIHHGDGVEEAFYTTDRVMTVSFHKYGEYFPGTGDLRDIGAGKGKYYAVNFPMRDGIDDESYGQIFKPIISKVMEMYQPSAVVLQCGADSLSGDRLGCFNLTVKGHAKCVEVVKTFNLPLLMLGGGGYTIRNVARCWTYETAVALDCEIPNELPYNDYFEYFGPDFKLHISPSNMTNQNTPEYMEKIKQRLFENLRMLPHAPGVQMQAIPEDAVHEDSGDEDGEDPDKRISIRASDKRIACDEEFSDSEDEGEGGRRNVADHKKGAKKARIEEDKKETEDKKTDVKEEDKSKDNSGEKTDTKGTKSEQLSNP
Chain of HDAC6 (Q9UBN7 whole entry, species assumed): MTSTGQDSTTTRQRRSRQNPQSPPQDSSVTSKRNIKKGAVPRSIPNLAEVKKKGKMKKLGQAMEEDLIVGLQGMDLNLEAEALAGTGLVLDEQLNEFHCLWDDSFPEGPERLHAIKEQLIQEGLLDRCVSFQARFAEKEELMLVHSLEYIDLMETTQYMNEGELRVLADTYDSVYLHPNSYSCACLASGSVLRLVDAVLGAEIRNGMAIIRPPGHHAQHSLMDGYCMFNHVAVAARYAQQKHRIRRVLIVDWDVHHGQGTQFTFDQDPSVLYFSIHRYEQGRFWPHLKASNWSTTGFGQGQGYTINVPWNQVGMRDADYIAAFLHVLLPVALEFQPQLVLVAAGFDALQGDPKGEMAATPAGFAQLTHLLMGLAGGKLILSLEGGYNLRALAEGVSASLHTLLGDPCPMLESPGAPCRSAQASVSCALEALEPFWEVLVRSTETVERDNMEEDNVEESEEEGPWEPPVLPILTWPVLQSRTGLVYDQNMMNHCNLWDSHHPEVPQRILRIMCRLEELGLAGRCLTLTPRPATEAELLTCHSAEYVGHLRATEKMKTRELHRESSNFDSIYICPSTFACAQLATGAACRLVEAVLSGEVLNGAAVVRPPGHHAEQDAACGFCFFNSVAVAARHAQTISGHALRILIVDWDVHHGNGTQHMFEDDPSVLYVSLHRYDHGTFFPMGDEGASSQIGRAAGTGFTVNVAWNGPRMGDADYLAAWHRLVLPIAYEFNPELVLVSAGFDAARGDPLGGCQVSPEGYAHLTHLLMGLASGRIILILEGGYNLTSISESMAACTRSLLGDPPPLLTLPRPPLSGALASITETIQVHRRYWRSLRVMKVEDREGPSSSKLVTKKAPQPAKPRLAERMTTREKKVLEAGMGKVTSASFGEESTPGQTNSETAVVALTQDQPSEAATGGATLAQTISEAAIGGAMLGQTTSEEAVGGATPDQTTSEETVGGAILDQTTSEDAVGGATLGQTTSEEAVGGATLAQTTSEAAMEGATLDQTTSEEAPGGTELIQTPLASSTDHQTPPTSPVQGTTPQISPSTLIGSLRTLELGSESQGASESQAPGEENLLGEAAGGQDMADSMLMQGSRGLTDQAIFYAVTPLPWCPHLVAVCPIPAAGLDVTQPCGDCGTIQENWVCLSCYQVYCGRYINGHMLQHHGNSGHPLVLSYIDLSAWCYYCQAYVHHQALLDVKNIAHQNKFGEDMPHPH
Chain of HDAC3 (O15379 whole entry, species assumed): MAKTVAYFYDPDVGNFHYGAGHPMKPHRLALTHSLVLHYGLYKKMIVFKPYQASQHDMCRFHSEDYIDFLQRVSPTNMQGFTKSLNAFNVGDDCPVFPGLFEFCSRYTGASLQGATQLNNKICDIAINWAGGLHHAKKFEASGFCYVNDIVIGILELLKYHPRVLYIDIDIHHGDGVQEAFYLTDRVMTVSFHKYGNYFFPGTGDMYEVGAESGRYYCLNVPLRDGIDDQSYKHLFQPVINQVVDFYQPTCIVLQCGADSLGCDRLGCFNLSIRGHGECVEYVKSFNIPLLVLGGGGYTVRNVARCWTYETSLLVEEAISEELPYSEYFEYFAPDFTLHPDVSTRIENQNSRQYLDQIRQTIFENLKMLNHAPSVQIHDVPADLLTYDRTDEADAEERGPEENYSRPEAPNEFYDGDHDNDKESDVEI
Chain of HDAC3 (Q9Y618 395-489 partner limits assumed, species assumed): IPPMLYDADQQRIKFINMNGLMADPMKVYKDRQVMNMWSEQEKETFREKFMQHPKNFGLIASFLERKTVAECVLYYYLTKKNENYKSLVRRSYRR
Chain of HDAC1 (Q13547 whole entry, species assumed): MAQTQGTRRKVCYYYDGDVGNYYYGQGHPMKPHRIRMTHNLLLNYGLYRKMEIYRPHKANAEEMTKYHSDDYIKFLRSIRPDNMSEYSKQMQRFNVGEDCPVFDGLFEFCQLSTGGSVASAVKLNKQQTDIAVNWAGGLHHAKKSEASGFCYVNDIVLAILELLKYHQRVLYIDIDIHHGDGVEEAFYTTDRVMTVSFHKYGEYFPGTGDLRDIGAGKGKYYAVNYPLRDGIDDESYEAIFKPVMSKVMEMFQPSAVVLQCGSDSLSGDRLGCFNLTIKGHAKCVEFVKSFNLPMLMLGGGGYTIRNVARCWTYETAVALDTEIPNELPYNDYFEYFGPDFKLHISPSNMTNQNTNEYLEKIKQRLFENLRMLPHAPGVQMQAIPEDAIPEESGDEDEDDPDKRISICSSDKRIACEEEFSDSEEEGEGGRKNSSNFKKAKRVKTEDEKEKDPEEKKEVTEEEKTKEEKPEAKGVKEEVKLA
Chain of HDAC8 (Q9BY41 whole entry, species assumed): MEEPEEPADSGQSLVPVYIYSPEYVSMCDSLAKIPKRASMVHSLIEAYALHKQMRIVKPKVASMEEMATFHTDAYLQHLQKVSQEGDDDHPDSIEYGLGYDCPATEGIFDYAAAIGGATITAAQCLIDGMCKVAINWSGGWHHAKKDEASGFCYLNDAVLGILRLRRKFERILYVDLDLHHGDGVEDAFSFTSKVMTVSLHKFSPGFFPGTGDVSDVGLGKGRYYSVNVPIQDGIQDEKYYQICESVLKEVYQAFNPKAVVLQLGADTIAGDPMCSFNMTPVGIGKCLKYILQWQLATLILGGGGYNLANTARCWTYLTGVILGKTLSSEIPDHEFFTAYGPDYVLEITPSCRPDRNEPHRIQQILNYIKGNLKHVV

Compound: CCC(=O)CCCCC[C@@H]1NC(=O)[C@H]2CCCCN2C(=O)[C@H]([C@@H](C)CC)NC(=O)[C@H](Cc2cn(OC)c3ccccc23)NC1=O [Apicidin]
- HDAC class selectivity [1]: selectivity for class I HDACs
- potency in HDAC biochemical assay [1]: single digit nanomolar potency

Compound: C[C@@H]1CCCCO[C@@H](CN(C)Cc2ccc3c(c2)OCO3)[C@H](C)CN([C@@H](C)CO)C(=O)c2cc(N(C)C)ccc2O1 [entry 1]
- fold improvement in HDAC2 potency ([2]; compared to lead stereoisomer (2R,5S,6R,12R)-32): > 10 fold
- IC50 ([2]; read-out: IC50 HDAC2): 6.6 ± 0.4 µM
- IC50 [3]: 2.7 ± 0.3 µM
- activity against HDACs 4-8 [4]: inactive
- IC50 [5]: 2.7 ± 0.2 µM

Compound: O=C(CCCCCCC(=O)Nc1ccccc1)NO [SAHA]
- inhibition of HDAC6 [6]: inhibits
- inhibition of HDAC8 [7]: inhibits
- binding kinetics nature (deacetylation progression linear) [8]: fast-on/fast-off
